*1 amine or outer side, *2 acyl side, *3 side chain or, on linkers, in order; H or OH if unused. Primed or numbered codes have the meaning given here. The star is where a group is joined. BODIPY(FL) = CC1=CC(C)=[N+]2C1=Cc1ccc(CCC(=O)*)n1[B-]2(F)F; Ethylenediamine = C(CN[*:2])N[*:1]; AMC = Cc1cc(=O)oc2cc(N*)ccc12; Dabcyl′ = quencher
How the values were obtained:
hGzmB = experiment: Limit of detection of hGzmB by probe fluorescence; type: biochemical, human; details: limit of detection of hGzmB (Fig. S1)
Method: (§1) Supplementary Figure 1. Reactivity of fluorogenic substrates against human GzmB and limits of detection. a) Reaction conversion rates (by HPLC-UV detection at 350 nm) for Ac-IEPD-AMC (50 μM) in TRIS buffer (see Methods) at 37 °C containing different concentrations of hGzmB. Data presented as mean values±SEM (n=3 independent biological experiments). b) Reaction conversion rates (by HPLC-UV detection at 500 nm) for the tetrapeptide T1 (25 μM) in TRIS buffer at 37 °C containing different concentrations of hGzmB. Data presented as mean values±SEM (3 independent biological experiments).
(§2) Source data provided as a Source Data file.
(§3) (1 picture or pasted object on this page, not shown here)
Supplementary Figure 4. Comparative enzyme selectivity and limit of detection for […]
Ac-IEPD-AMC (all at 25 μM) after incubation for 90 min at 37 °C with hGzmB (light gray bars), human caspase-3 (dark gray bars) and hGzmA (white bars) (all enzymes used at 20 nM). Data presented as mean values±SEM (n=3). Excitation wavelengths: 450 nm (for […]
450 nm (for Ac-IEPD-AMC). b) Limit of detection of hGzmB by fluorescence emission […]
presented as mean values±SD (2 independent experiments with 3 technical replicates).

human GzmB (hGzmB) = molecular target: T1, human GzmB (hGzmB) (Homo sapiens, UniProt P10144); experiment: HPLC conversion of fluorogenic peptides by hGzmB; type: biochemical; details: TRIS buffer, 37 °C
T1 construct: For active GzmB vs pro-GzmB, p < 0.0001
Method: as §1, §2, §3
Supplementary Table 1. Chemical structures and reactivity of FRET-based tetrapeptides against human GzmB.
Code Structure Linker Quencher HPLC conversion HPLC conversion […]
Supplementary Table 2. Sequences and reactivity of FRET-based hexapeptides against […]
Code Peptide sequence HPLC conversion
H1 Ile-Glu-Pro-Asp-Ala-Gly 75%
H2 Ile-Glu-Pro-Asp-Ser-Gly 80%
H3 Ile-Glu-Pro-Asp-Ser-Leu 80%
H4 Ile-Glu-Pro-Asp-Trp-Leu 82%
H6 Ile-Glu-Pro-Asp-Trp-Arg 40%
H7 Ile-Glu-Pro-Asp-Arg-Leu 60%
H5m Ile-Glu-Phe-Asp-Ala-Leu 70%

GzmB = details: 4-mer, fluorogenic dye; ref [39]; cited from earlier work
Text: Table 1 Summary of fluorescent peptide-based probes for GzmB. | column: Kcat (s^−1); KM (µM); Kcat/KM (M^−1 s^−1)

human granzyme B (human) [1] = molecular target: human granzyme B (human) (UniProt P10144)
human granzyme B (human) [2] = molecular target: human granzyme B (human) (UniProt P10144); remark: listed apart in the source
human granzyme B (human) [3] = molecular target: human granzyme B (human) (UniProt P10144); remark: listed apart in the source
human granzyme B (human) [4] = molecular target: human granzyme B (human) (UniProt P10144); remark: listed apart in the source
[5] = probe 25 μM (Ac-IEPD-AMC 50 μM), HPLC-UV

Sequence of human granzyme B (human) (P10144 21-247): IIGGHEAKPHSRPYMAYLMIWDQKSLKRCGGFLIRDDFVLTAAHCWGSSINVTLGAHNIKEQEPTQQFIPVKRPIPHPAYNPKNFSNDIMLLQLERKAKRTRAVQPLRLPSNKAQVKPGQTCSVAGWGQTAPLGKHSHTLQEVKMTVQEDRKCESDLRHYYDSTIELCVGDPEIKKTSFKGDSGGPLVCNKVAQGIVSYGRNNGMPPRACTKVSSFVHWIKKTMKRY
T1 sequence (P10144 21-247): as above

For Ac-IEPD-{AMC}, the LoD (hGzmB) was 25 nM, the HPLC conversion rate (human GzmB (hGzmB); 2h-20 nM hGzmB, Data 1) was 0.5% and the HPLC conversion rate (human GzmB (hGzmB); 2h-20 nM hGzmB, Data 2) was 0.5%. The HPLC conversion rate (human GzmB (hGzmB); 2h-20 nM hGzmB, Data 3) was 0.5%, the HPLC conversion rate (human GzmB (hGzmB); 2h-50 nM hGzmB, Data 1) was 2.5% and the HPLC conversion rate (human GzmB (hGzmB); 2h-50 nM hGzmB, Data 2) was 2%. It also gave an HPLC conversion rate (human GzmB (hGzmB); 2h-50 nM hGzmB, Data 3) of 2.5%, an HPLC conversion rate (human GzmB (hGzmB); 2h-100 nM hGzmB, Data 1) of 7.5% and an HPLC conversion rate (human GzmB (hGzmB); 2h-100 nM hGzmB, Data 2) of 5%. For the same molecule, the HPLC conversion rate (human GzmB (hGzmB); 2h-100 nM hGzmB, Data 3) was 6.5%, the HPLC conversion rate (human GzmB (hGzmB); 6h-20 nM hGzmB, Data 1) was 0.5% and the HPLC conversion rate (human GzmB (hGzmB); 6h-20 nM hGzmB, Data 2) was 0.5%. The HPLC conversion rate (human GzmB (hGzmB); 6h-20 nM hGzmB, Data 3) was 0.75%, the HPLC conversion rate (human GzmB (hGzmB); 6h-50 nM hGzmB, Data 1) was 3% and the HPLC conversion rate (human GzmB (hGzmB); 6h-50 nM hGzmB, Data 2) was 2%. The HPLC conversion rate (human GzmB (hGzmB); 6h-50 nM hGzmB, Data 3) was 2%, the HPLC conversion rate (human GzmB (hGzmB); 6h-100 nM hGzmB, Data 1) was 8.5% and the HPLC conversion rate (human GzmB (hGzmB); 6h-100 nM hGzmB, Data 2) was 7%. For the same molecule, the HPLC conversion rate (human GzmB (hGzmB); 6h-100 nM hGzmB, Data 3) was 9%, the HPLC conversion rate (human GzmB (hGzmB); 24h-20 nM hGzmB, Data 1) was 1.5% and the HPLC conversion rate (human GzmB (hGzmB); 24h-20 nM hGzmB, Data 2) was 1%. For the same molecule, the HPLC conversion rate (human GzmB (hGzmB); 24h-20 nM hGzmB, Data 3) was 1.5%, the HPLC conversion rate (human GzmB (hGzmB); 24h-50 nM hGzmB, Data 1) was 4% and the HPLC conversion rate (human GzmB (hGzmB); 24h-50 nM hGzmB, Data 2) was 2.5%. For the same molecule, the HPLC conversion rate (human GzmB (hGzmB); 24h-50 nM hGzmB, Data 3) was 3.5%, the HPLC conversion rate (human GzmB (hGzmB); 24h-100 nM hGzmB, Data 1) was 13% and the HPLC conversion rate (human GzmB (hGzmB); 24h-100 nM hGzmB, Data 2) was 9%. For the same molecule, the HPLC conversion rate (human GzmB (hGzmB); 24h-100 nM hGzmB, Data 3) was 12.5%, the “HPLC conversion (20 nM hGzmB, 2 h)” value (human GzmB (hGzmB); [5]) was under 1% and the “HPLC conversion (100 nM hGzmB, 24 h)” value (human GzmB (hGzmB); [5]) was 10%. The Kcat/KM (GzmB) was 3300 M⁻¹ s⁻¹, the Km (GzmB) was 160 µM and the kcat (GzmB) was 0.5 s⁻¹.

{BODIPY(FL)}-IEPDAL-{Dabcyl′} [probe H5] gave a KM of cleavage by hGzmB (20 nM), Michaelis-Menten fit (human granzyme B (human) [1]) of 9.6 µM, a Kcat of cleavage by hGzmB (20 nM), Michaelis-Menten fit (human granzyme B (human) [1]) of 117 s⁻¹ and a Kcat/KM of cleavage by hGzmB (20 nM), Michaelis-Menten fit (human granzyme B (human) [1]) of 1.2e+07 M⁻¹ s⁻¹. It also gave a signal-to-background ratio of fluorescence emission (peptide 25 μM, hGzmB 20 nM) (human granzyme B (human) [2]) of 153 fold and a t50: time to reach 50-fold fluorescence increase (peptide 25 μM, hGzmB 20 nM) (human granzyme B (human) [2]) of 7 min.

{BODIPY(FL)}-IEPDWR-{Dabcyl′} [hexapeptide H6] gave a conversion (cleavage) by hGzmB (human granzyme B (human) [3]) of 40% and a signal-to-background ratio of fluorescence emission (peptide 25 μM, hGzmB 20 nM) (human granzyme B (human) [2]) of 12 fold.

B1: Ac-IEPD-AMC (peptide)
peptide: Ac-IEPD-{AMC}
SMILES: CC[C@H](C)[C@H](NC(C)=O)C(=O)N[C@@H](CCC(=O)O)C(=O)N1CCC[C@H]1C(=O)N[C@@H](CC(=O)O)C(=O)Nc1ccc2c(C)cc(=O)oc2c1
Molecule B1 has an enzymatic cleavage of Ac-IEPD-AMC by hGzmB (20 nM for 2 h: <1%; 100 nM for 24 h: 10%) (human granzyme B (human) [4]) of 10%.

{BODIPY(FL)}-IEPD-{Ethylenediamine-Dabcyl′} [tetrapeptide T1] gave a KM of cleavage by GzmB (human granzyme B (human) [1]) of 30.8 µM, a Kcat of cleavage by GzmB (human granzyme B (human) [1]) of 2.3 s⁻¹ and a Kcat/KM of cleavage by GzmB (human granzyme B (human) [1]) of 59000 M⁻¹ s⁻¹. It also gave an enzymatic cleavage of T1 by hGzmB (20 nM for 2 h: <5%; 100 nM for 24 h: 14%) (human granzyme B (human) [4]) of 14%.

Source: article PMC9061857, “A fluorogenic probe for granzyme B enables in-biopsy evaluation and screening of response to anticancer immunotherapies” (Nature Communications, 2022)
